Measured values as given in patent publication US7507813B2, “Amorphous cefuroxime axetil and preparation process therefore” (Nanomaterials Technology Pte Ltd., priority 2004, dated 2009).

Test: Particle size of the cefuroxime axetil particles (SEM images)
Format: physicochemical
Conditions: amorphous particles from antisolvent precipitation

Compound | average particle size
CO/N=C(\C(=O)N[C@@H]1C(=O)N2C(C(=O)OC(C)OC(C)=O)=C(COC(N)=O)CS[C@H]12)c1ccco1 (some centres unmarked) [Example 1, cefuroxime axetil] | about 500 nm
CO/N=C(\C(=O)N[C@@H]1C(=O)N2C(C(=O)OC(C)OC(C)=O)=C(COC(N)=O)CS[C@H]12)c1ccco1 (some centres unmarked) [Example 2, cefuroxime axetil] | about 600 nm
CO/N=C(\C(=O)N[C@@H]1C(=O)N2C(C(=O)OC(C)OC(C)=O)=C(COC(N)=O)CS[C@H]12)c1ccco1 (some centres unmarked) [Example 3, cefuroxime axetil] | about 1 μm
CO/N=C(\C(=O)N[C@@H]1C(=O)N2C(C(=O)OC(C)OC(C)=O)=C(COC(N)=O)CS[C@H]12)c1ccco1 (some centres unmarked) [Example 4, cefuroxime axetil] | about 400 nm
CO/N=C(\C(=O)N[C@@H]1C(=O)N2C(C(=O)OC(C)OC(C)=O)=C(COC(N)=O)CS[C@H]12)c1ccco1 (some centres unmarked) [Example 5, cefuroxime axetil] | about 200 nm
CO/N=C(\C(=O)N[C@@H]1C(=O)N2C(C(=O)OC(C)OC(C)=O)=C(COC(N)=O)CS[C@H]12)c1ccco1 (some centres unmarked) [Example 6, cefuroxime axetil] | about 1 μm
CO/N=C(\C(=O)N[C@@H]1C(=O)N2C(C(=O)OC(C)OC(C)=O)=C(COC(N)=O)CS[C@H]12)c1ccco1 (some centres unmarked) [Example 7, cefuroxime axetil] | about 500 nm

Other lines, results leading:

average particle size | Compound
about 2 μm | CO/N=C(\C(=O)N[C@@H]1C(=O)N2C(C(=O)OC(C)OC(C)=O)=C(COC(N)=O)CS[C@H]12)c1ccco1 (some centres unmarked) [Example 8, cefuroxime axetil]
about 500 nm | CO/N=C(\C(=O)N[C@@H]1C(=O)N2C(C(=O)OC(C)OC(C)=O)=C(COC(N)=O)CS[C@H]12)c1ccco1 (some centres unmarked) [Example 9, cefuroxime axetil]
about 600 nm | CO/N=C(\C(=O)N[C@@H]1C(=O)N2C(C(=O)OC(C)OC(C)=O)=C(COC(N)=O)CS[C@H]12)c1ccco1 (some centres unmarked) [Example 10, cefuroxime axetil]
about 1 μm | CO/N=C(\C(=O)N[C@@H]1C(=O)N2C(C(=O)OC(C)OC(C)=O)=C(COC(N)=O)CS[C@H]12)c1ccco1 (some centres unmarked) [Example 11, cefuroxime axetil]
